Results published in patent US8846639B2, “Oligomeric compounds comprising bicyclic nucleosides and having reduced toxicity” (Isis Pharmaceutical, Inc., priority 2008, dated 2014).
“And” between values parts separate entries of the source, which are not always exact repeats. Identical values can stand only once.

Assays:
PTEN mRNA = PTEN mRNA levels in liver, real-time PCR (Example 14 in vivo study); parameters: species or system mice; conditions: for PTEN mRNA levels (% inhibition): liver, 72 h
Procedure: (§1) Six week old male Balb/c mice (Jackson Laboratory, Bar Harbor, Me.) were administered a single intraperitoneal (i.p) injection with 4′-CH2—O-2′ BNA containing oligomers (392745 and 392063) and 6(S)-4′-CH(CH3)—O-2′ BNA containing oligomers (392749 and 411847) at a does of 3.2, 10, 32, 66 and 100 mg/kg. Oligomers 392063 and 411847 contain LNA nucleosides with methylated pyrimidines, and oligomers 392745 and 392749 contain LNA nucleosides with non-methylated pyrimidines in the wings. All intemucleoside linkages are phosphorothioates, nucleosides not followed by a subscript are βD-2′-deoxyribonucleosides, nucleosides followed by a subscript 1 are 4′-CH2—O-2′ modified bicyclic nucleosides, nucleosides followed by a subscript S are 6(S)-4′-CH(CH3)—O-2′ modified bicyclic nucleosides wherein S indicates the configuration at the 6 carbon atom and ^MeC indicates a 5′-methyl cytosine nucleoside.
Each dose group consisted of four animals. The mice were sacrificed 72 hours following the final administration to determine the PTEN mRNA levels in liver using real-time PCR and RIBOGREEN® RNA quantification reagent (Molecular Probes, Inc. Eugene, Oreg.) according to standard protocols. PTEN mRNA levels were determined relative to total RNA (using Ribogreen), prior to normalization to saline-treated control. Results are listed below as the average % inhibition of mRNA expression for each treatment group, normalized to saline-injected control.
Estimated ED50 concentrations for each oligomers were calculated using Graphpad Prism. ED50 is the dose at which 50% mRNA reducation is observed.

[1] = Liver transaminase (ALT) levels in serum (Example 14); type: in vivo, mice; conditions: for ALT levels: serum, saline = 24;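 on ALT levels: ALT reported in IU/L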
Procedure: as §1
Liver transaminase levels, alanine aminotranferease (ALT) and aspartate aminotransferase (AST), in serum were also measured relative to saline injected mice. Increases in the transaminase levels can indicate hepatotoxicity. The approximate liver transaminase levels are listed below.

PTEN RNA [2] = assay: PTEN RNA in liver (Example 15 in vivo study); parameters: species or system mice; conditions: 72 h, compared to PBS control
Procedure: (§2) Six week old male Balb/c mice (Jackson Laboratory, Bar Harbor, Me.) were administered a single intraperitoneal (i.p) injection of oligomers as set forth in the table below.
(§3) Mice were divided into 9 groups, with 4 mice in each group. The mice of 8 groups received a single dose, administered i.p., of one of the above oligomeric compounds at a dose of 100, 32, 10, or 3.2 mg/kg. The final group was dosed with phosphate buffered saline (PBS) as a control. The mice were sacrificed 72 hours after administration. Antisense activity was determined by measuring PTEN RNA in liver.

[3] = Serum ALT, individual animals (Example 15); type: in vivo, mice; conditions: for ALT levels - Individual animals: serum, four animals
Procedure: as §3

[4] = Body weight at sacrifice relative to pre-dose (Example 15); type: in vivo, mice; conditions: for % of pre-dose weight: 72 h, PBS = 99
Procedure: as §3
(§4) Body weight was measured before treatment and again at sacrifice 72 hours after treatment.

[5] = Spleen weight as a measure of inflammatory response (Example 15); type: in vivo, mice; conditions: for spleen weight, % Control: relative to PBS control
Procedure: as §3
(§5) Spleens were weighed as a measure of inflammatory response.

PTEN RNA [6] = assay: PTEN RNA in liver (Example 16 in vivo study); parameters: species or system mice; conditions: for % Reduction PTEN RNA: liver, 72 h, compared to PBS control; for ED50: PTEN RNA in liver
Procedure: as §2
as §3, with “17” for “9”, “16” for “8”, “liver and is expressed as % reduction compared to PBS control mice.” for “liver.”

[7] = Serum ALT, individual animals (Example 16); type: in vivo, mice; conditions: four animals
Procedure: as §3, with “17” for “9”, “16” for “8”, “liver and is expressed as % reduction compared to PBS control mice.” for “liver.”
Toxicity was assessed by measuring alanine aminotranferease (ALT) in serum.

[8] = Body weight at sacrifice relative to pre-dose (Example 16); type: in vivo, mice; conditions: 72 h, PBS = 102
Procedure: as §3, with “17” for “9”, “16” for “8”, “liver and is expressed as % reduction compared to PBS control mice.” for “liver.”
as §4

[9] = Spleen weight as a measure of inflammatory response (Example 16); type: in vivo, mice; conditions: for spleen weight, % Control: relative to PBS control
Procedure: as §3, with “17” for “9”, “16” for “8”, “liver and is expressed as % reduction compared to PBS control mice.” for “liver.”
as §5

Row | Substance | % Reduction PTEN RNA (PTEN RNA [6]; 3.2 mg/kg single i.p.) | % Reduction PTEN RNA (PTEN RNA [6]; 10 mg/kg single i.p.) | % Reduction PTEN RNA (PTEN RNA [6]; 32 mg/kg single i.p.) | % Reduction PTEN RNA (PTEN RNA [6]; 100 mg/kg single i.p.) | ED50 (PTEN RNA [6]) | ALT levels - Individual animals ([7]; 3.2 mg/kg) | ALT levels - Individual animals ([7]; 10 mg/kg) | ALT levels - Individual animals ([7]; 32 mg/kg) | ALT levels - Individual animals ([7]; 100 mg/kg) | % pre-dose wt ([8]; 3.2 mg/kg) | % pre-dose wt ([8]; 10 mg/kg) | % pre-dose wt ([8]; 32 mg/kg) | % pre-dose wt ([8]; 100 mg/kg) | spleen weight, % Control ([9]; 3.2 mg/kg) | spleen weight, % Control ([9]; 10 mg/kg) | spleen weight, % Control ([9]; 32 mg/kg) | spleen weight, % Control ([9]; 100 mg/kg) | further results
1 | ^MeCSTSTAGCACTGGC^MeCSTS [ISIS 411847] |  |  |  |  |  |  |  |  |  |  |  |  |  |  |  |  |  | PTEN mRNA levels (% inhibition) (PTEN mRNA; 3.2 mg/kg single i.p.): 0%; PTEN mRNA levels (% inhibition) (PTEN mRNA; 10 mg/kg single i.p.): 32%; PTEN mRNA levels (% inhibition) (PTEN mRNA; 32 mg/kg single i.p.): 87%; PTEN mRNA levels (% inhibition) (PTEN mRNA; 66 mg/kg single i.p.): 84%; PTEN mRNA levels (% inhibition) (PTEN mRNA; 100 mg/kg single i.p.): 92%; ED50 (PTEN mRNA; estimated, Graphpad Prism, dose at which 50% mRNA reduction is observed): 12 mg/kg; ALT levels ([1]; 3.2 mg/kg): 26 IU/L; ALT levels ([1]; 10 mg/kg): 27 IU/L; ALT levels ([1]; 32 mg/kg): 16 IU/L; ALT levels ([1]; 66 mg/kg): 279 IU/L; ALT levels ([1]; 100 mg/kg): 2816 IU/L; ALT level decrease as compared to 392063 treatment ([1]; dose not stated): about 5 fold
2 | ^mCas Tas Tds Ads Gds Cds Ads Cds Tds Gds Gds Cds ^mCas Ta [ISIS 435854] |  |  |  |  |  |  |  |  |  |  |  |  |  |  |  |  |  | % Reduction PTEN RNA (PTEN RNA [2]; 3.2 mg/kg single i.p.): 48%; % Reduction PTEN RNA (PTEN RNA [2]; 10 mg/kg single i.p.): 73%; % Reduction PTEN RNA (PTEN RNA [2]; 32 mg/kg single i.p.): 94%; % Reduction PTEN RNA (PTEN RNA [2]; 100 mg/kg single i.p.): 95%; ALT levels - Individual animals ([3]; 3.2 mg/kg): 15 IU/L and 22 IU/L and 20 IU/L and 11 IU/L; ALT levels - Individual animals ([3]; 10 mg/kg): 23 IU/L and 21 IU/L and 33 IU/L and 28 IU/L; ALT levels - Individual animals ([3]; 32 mg/kg): 24 IU/L and 29 IU/L and 16 IU/L and 46 IU/L; ALT levels - Individual animals ([3]; 100 mg/kg): 1575 IU/L and 854 IU/L and 1665 IU/L and 3948 IU/L; Serum ALT ([3]; highest dose): elevated; % of pre-dose weight ([4]; 3.2 mg/kg): 99%; % of pre-dose weight ([4]; 10 mg/kg): 102%; % of pre-dose weight ([4]; 32 mg/kg): 102%; % of pre-dose weight ([4]; 100 mg/kg): 94%; body weight ([4]; highest dose): some weight loss; spleen weight, % Control ([5]; 3.2 mg/kg): 112%; spleen weight, % Control ([5]; 10 mg/kg): 87%; spleen weight, % Control ([5]; 32 mg/kg): 115%; spleen weight, % Control ([5]; 100 mg/kg): 160%; spleen weight compared to control and to the non-methylated compound ([5]; mouse, in vivo): marked increase
3 | ^mCjs Tjs Tds Ads Gds Cds Ads Cds Tds Gds Gds Cds ^mCjs Tj [ISIS 443394] | 16% | 39% | 68% | 89% | 13.5 mg/kg | 28 IU/L and 26 IU/L and 30 IU/L and 69 IU/L | 55 IU/L and 28 IU/L and 32 IU/L (2×) | 55 IU/L and 25 IU/L (2×) and 28 IU/L | 23 IU/L (2×) and 44 IU/L and 18 IU/L | 102% | 102% | 101% | 101% | 106% | 96% | 97% | 98% | 
4 | ^mCxs Txs Tds Ads Gds Cds Ads Cds Tds Gds Gds Cds ^mCxs Tx [ISIS 445545] | 21% | 55% | 87% | 92% | 7.7 mg/kg | 20 IU/L and 34 IU/L (2×) and 31 IU/L | 79 IU/L and 19 IU/L and 28 IU/L and 18 IU/L | 22 IU/L and 45 IU/L and 24 IU/L and 47 IU/L | 102 IU/L and 135 IU/L and 277 IU/L and 85 IU/L | 100% | 102% | 101% | 102% | 100% | 99% | 134% | 139% | spleen weight compared to control and to the non-methylated compound ([9]; mouse, in vivo): increase in spleen weight
